From ChEMBL document CHEMBL5649166, “RIP3 induces apoptosis independent of pronecrotic kinase activity” (Mol Cell, 2014)

Key:
[1] = biological target: Tyrosine-protein kinase Fgr (Homo sapiens) (UniProt P09769); assay: Inhibition of human FGR using poly[Glu:Tyr] (4:1) as substrate at 1 uM in presence of 32P-ATP by Hotspot assay relative to control; values are per cent of control
[2] = biological target: Death-associated protein kinase 3 (Homo sapiens) (UniProt O43293); assay: Inhibition of human ZIPK/DAPK3 using KKLNRTLSFAEPG as substrate at 1 uM in presence of 32P-ATP by Hotspot assay relative to control; values are per cent of control
[3] = biological target: Ribosomal protein S6 kinase alpha-4 (Homo sapiens) (UniProt O75676); assay: Inhibition of human MSK2/RPS6KA4 using GRPRTSSFAEG as substrate at 1 uM in presence of 32P-ATP by Hotspot assay relative to control; values are per cent of control
HT-29 = assay: Inhibition of TNF-alpha induced necroptosis in human HT-29 cells assessed as increase in cell viability incubated for 24 hrs in presence of zVAD and SMAC007 by Cell Titer-Glo luminescent cell viability assay; type: functional, cell-based; conditions: dose 0.01-3 µM
[4] = biological target: CDK1/Cyclin A (Homo sapiens) (UniProt P06493+P20248); assay: Inhibition of human CDK1/cyclin A using RB Protein as substrate at 1 uM in presence of 32P-ATP by Hotspot assay relative to control; values are per cent of control
[5] = biological target: T1, Serine/threonine-protein kinase A-Raf (Homo sapiens) (UniProt P10398); assay: Inhibition of human ARAF using MEK1 (K97R) as substrate at 1 uM in presence of 32P-ATP by Hotspot assay relative to control; values are per cent of control
T1 sequence (whole entry): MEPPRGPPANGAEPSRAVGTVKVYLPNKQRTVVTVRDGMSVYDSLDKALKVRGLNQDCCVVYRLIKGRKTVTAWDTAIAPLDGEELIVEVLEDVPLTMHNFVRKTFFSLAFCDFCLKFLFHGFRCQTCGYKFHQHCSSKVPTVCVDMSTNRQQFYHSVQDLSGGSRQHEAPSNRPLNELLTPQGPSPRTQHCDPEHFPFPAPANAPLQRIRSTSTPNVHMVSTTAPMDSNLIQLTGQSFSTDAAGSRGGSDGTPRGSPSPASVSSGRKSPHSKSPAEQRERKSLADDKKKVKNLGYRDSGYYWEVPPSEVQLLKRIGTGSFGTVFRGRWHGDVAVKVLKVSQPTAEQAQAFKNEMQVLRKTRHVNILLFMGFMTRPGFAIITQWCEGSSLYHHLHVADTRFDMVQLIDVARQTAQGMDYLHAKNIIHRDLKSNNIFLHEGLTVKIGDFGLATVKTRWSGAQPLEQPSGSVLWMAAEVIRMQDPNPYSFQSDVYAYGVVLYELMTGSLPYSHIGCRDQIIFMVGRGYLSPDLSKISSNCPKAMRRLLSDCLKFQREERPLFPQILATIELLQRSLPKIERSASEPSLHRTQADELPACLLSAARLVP

[6] = biological target: T2, Activin receptor type-1 (Homo sapiens) (UniProt Q04771); assay: Inhibition of human ALK2/ACVR1 using casein as substrate at 1 uM in presence of 32P-ATP by Hotspot assay relative to control; values are per cent of control
T2 sequence (whole entry): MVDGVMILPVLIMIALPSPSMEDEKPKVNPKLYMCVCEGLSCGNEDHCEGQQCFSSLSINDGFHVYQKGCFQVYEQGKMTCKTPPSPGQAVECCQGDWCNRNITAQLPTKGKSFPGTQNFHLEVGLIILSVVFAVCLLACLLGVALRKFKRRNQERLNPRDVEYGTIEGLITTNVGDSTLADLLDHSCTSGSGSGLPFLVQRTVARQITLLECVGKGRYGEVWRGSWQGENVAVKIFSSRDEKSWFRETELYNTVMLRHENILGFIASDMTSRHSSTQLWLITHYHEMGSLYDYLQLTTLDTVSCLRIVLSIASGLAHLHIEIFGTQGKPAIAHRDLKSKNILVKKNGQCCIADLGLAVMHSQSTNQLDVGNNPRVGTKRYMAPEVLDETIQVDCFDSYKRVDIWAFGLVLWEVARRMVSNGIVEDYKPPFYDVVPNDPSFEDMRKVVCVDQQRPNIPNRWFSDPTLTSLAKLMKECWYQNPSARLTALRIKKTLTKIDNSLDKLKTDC

[7] = biological target: Insulin-like growth factor 1 receptor (Homo sapiens) (UniProt P08069); assay: Inhibition of human IGF1R using KKKSPGEYVNIEFG as substrate at 1 uM in presence of 32P-ATP by Hotspot assay relative to control; values are per cent of control
[8] = biological target: T3, Tyrosine-protein kinase TXK (Homo sapiens) (UniProt P42681); assay: Inhibition of human TXK using EAIYAAPFAKKK as substrate at 1 uM in presence of 32P-ATP by Hotspot assay relative to control; values are per cent of control
T3 sequence (whole entry): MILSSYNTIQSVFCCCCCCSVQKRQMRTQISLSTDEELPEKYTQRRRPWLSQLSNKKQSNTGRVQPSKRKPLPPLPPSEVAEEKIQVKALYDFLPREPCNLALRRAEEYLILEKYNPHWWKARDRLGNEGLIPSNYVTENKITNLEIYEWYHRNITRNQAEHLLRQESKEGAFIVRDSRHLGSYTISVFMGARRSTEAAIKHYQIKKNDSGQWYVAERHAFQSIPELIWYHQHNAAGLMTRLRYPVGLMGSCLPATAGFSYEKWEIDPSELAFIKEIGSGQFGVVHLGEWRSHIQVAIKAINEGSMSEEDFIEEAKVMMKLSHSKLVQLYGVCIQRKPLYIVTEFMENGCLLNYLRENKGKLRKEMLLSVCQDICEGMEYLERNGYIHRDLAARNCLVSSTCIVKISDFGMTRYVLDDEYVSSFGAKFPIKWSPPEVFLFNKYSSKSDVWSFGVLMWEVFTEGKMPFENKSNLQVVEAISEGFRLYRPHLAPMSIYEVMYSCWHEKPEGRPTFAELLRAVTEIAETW

[9] = biological target: Protein kinase C eta type (Homo sapiens) (UniProt P24723); assay: Inhibition of human PKCeta using ERMRPRKRQGSVRRRV as substrate at 1 uM in presence of 32P-ATP by Hotspot assay relative to control; values are per cent of control
Protein kinase C eta type (Homo sapiens), sequence (P24723 whole entry): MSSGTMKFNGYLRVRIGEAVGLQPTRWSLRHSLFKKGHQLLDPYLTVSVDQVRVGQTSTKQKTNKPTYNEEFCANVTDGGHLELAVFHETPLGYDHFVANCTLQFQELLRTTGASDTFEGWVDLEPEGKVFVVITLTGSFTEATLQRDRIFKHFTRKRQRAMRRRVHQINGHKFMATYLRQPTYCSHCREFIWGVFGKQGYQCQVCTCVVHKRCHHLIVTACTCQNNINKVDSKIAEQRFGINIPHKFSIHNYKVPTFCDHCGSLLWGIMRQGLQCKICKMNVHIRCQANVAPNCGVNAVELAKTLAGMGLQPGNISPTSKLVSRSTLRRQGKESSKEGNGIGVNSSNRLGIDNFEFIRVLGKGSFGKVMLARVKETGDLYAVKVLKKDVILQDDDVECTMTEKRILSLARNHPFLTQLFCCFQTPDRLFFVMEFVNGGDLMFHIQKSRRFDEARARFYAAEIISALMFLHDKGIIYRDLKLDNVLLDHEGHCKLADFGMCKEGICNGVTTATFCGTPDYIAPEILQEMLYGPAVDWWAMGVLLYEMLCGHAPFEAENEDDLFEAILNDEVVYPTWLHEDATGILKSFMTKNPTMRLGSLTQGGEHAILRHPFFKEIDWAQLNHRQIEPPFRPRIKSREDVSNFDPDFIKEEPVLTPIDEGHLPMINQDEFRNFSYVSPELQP

Insulin-like growth factor 1 receptor (Homo sapiens), sequence (P08069 31-736 limits assumed): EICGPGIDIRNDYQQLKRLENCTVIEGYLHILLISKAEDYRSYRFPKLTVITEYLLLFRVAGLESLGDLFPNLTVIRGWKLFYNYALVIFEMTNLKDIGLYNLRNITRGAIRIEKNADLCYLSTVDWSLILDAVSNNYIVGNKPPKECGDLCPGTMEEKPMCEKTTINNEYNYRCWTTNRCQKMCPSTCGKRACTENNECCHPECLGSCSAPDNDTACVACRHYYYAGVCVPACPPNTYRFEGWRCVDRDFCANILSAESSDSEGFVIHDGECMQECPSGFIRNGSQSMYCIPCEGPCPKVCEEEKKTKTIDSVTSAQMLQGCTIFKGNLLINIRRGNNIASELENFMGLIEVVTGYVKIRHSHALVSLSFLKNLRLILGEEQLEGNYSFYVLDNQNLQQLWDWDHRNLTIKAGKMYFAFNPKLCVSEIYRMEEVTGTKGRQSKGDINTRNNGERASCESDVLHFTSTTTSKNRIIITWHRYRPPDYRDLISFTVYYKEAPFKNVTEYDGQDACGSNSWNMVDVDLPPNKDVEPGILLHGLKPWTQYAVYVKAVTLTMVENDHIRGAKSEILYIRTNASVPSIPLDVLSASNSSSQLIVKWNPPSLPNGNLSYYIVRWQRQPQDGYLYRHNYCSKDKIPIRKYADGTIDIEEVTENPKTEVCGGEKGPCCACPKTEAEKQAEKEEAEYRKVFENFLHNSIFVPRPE
Insulin-like growth factor 1 receptor (Homo sapiens), sequence (P08069 741-1367 limits assumed): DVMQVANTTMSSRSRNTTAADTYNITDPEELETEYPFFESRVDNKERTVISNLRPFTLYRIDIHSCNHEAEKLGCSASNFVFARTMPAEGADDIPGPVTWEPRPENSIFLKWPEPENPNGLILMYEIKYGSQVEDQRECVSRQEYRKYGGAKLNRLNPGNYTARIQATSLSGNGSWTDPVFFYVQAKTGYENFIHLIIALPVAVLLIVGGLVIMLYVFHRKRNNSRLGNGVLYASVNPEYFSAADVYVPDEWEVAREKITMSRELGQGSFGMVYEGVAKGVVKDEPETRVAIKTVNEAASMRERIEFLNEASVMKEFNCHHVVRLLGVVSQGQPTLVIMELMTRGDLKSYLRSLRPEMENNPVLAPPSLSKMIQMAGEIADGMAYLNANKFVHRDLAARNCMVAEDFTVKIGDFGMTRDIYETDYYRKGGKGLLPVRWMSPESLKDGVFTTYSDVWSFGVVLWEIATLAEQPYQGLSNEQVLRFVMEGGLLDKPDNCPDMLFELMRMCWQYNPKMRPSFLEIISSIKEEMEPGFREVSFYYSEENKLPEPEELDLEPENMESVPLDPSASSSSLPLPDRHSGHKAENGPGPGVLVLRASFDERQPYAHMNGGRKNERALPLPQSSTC
Ribosomal protein S6 kinase alpha-4 (Homo sapiens), sequence (O75676 whole entry, looked up): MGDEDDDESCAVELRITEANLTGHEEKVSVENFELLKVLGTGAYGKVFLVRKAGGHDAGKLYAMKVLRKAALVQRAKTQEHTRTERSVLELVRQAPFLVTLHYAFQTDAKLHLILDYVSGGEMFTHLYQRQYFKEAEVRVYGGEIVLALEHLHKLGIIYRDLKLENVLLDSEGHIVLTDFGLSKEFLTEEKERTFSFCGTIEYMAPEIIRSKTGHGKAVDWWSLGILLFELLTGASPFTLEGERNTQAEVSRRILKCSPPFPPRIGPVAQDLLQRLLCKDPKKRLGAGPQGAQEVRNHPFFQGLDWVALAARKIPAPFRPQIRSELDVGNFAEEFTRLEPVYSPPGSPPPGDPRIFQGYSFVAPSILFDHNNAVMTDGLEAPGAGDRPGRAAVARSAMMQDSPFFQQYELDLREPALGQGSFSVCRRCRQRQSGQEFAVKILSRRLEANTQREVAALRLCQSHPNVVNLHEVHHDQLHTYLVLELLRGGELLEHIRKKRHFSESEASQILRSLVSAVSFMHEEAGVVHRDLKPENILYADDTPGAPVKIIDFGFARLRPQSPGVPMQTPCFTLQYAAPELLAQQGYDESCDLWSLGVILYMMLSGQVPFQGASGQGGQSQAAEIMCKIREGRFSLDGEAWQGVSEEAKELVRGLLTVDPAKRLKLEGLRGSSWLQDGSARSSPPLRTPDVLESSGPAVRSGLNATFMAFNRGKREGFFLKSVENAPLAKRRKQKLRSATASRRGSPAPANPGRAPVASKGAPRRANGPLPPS
Death-associated protein kinase 3 (Homo sapiens), sequence (O43293 whole entry, looked up): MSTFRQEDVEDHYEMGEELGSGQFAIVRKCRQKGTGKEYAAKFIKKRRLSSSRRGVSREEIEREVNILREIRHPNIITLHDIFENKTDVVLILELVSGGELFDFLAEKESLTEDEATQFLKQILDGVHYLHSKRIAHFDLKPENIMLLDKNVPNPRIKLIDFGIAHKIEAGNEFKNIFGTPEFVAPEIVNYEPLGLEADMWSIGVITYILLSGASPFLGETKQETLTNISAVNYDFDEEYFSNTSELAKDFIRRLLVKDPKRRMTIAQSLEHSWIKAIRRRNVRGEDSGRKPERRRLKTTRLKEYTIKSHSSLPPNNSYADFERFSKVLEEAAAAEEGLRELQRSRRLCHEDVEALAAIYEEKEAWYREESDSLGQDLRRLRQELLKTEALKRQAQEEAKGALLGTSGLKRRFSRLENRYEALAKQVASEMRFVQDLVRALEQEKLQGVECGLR
CDK1/Cyclin A (Homo sapiens), sequence (P06493 whole entry, looked up): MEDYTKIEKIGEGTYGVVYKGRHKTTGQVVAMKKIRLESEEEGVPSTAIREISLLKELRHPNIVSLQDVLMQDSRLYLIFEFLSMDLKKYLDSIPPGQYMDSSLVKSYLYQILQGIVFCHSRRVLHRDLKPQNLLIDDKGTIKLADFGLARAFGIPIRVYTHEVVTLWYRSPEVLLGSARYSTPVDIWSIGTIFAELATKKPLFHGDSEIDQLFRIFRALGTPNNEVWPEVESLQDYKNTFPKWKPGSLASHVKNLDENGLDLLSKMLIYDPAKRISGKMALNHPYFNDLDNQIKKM
CDK1/Cyclin A (Homo sapiens), sequence (P20248 whole entry, looked up): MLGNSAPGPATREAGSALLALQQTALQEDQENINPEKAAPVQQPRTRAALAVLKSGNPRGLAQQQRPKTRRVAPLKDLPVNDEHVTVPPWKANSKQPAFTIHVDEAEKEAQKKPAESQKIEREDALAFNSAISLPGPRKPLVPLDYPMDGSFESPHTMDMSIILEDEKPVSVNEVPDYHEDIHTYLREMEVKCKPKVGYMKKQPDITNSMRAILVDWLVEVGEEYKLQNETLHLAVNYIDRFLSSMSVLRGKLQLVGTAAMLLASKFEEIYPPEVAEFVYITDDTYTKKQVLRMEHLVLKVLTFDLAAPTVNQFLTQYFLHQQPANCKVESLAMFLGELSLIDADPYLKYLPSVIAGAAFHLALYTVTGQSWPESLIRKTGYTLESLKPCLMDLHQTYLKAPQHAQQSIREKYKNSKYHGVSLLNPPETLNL
Tyrosine-protein kinase Fgr (Homo sapiens), sequence (P09769 2-529 limits assumed): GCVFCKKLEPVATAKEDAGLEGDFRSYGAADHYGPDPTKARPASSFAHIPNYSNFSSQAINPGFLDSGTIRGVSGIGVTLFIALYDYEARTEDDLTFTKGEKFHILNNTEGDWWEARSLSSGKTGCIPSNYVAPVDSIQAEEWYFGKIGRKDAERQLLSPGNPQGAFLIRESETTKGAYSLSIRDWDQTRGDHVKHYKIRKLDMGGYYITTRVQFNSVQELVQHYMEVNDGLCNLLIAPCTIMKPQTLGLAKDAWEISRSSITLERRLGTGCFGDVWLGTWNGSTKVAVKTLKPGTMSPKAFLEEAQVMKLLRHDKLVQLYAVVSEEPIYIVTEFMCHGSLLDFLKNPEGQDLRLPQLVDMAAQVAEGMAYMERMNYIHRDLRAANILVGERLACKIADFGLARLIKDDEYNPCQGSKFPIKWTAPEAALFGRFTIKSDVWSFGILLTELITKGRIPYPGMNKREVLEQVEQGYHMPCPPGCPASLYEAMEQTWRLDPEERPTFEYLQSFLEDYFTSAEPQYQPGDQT

Structure (SMILES)	residual activity [1]	residual activity [2]	residual activity [3]	inhibition (HT-29)	residual activity [4]	residual activity [5]	residual activity [6]	residual activity [7]	residual activity [8]	residual activity [9]
Cc1cc(-c2cnc(N)c3c(-c4ccc5scnc5c4)csc23)n(C)n1	22.2%	91.3%	99.3%	Dose-Dependent Effect	98.9%	65.3%	101%	101%	33.2%	73.6%
CC(C)S(=O)(=O)c1ccc2nccc(Nc3ccc4scnc4c3)c2c1	28.5%	102%	95.4%	Dose-Dependent Effect	88.6%	45.7%	102%	100%	47.4%	88%
CNC(=O)c1ccc2c(c1)ncn2-c1ccc(CC(=O)OC(C)(C)C)cc1	37.6%	96.8%	96.9%	Dose-Dependent Effect	94.5%	93.2%	80.4%	97.6%	84.2%	92.5%
